Source: US20090142811A1, “Discovery, Cloning and Purification of Thermococccus sp. (Strain 9 Degrees N-7) Dna Ligase” (New England Biolabs, Inc., priority 2005, published 2009)

Target: T1, Thermococcus sp. (strain 9° N-7) DNA ligase, clone B2, SEQ ID NO:15 (Thermococcus nautili, UniProt W8P6M3)
T1 construct: E. coli BL21(DE3)-RIL; purified
T1 sequence (W8P6M3 with tags, fused parts or gaps): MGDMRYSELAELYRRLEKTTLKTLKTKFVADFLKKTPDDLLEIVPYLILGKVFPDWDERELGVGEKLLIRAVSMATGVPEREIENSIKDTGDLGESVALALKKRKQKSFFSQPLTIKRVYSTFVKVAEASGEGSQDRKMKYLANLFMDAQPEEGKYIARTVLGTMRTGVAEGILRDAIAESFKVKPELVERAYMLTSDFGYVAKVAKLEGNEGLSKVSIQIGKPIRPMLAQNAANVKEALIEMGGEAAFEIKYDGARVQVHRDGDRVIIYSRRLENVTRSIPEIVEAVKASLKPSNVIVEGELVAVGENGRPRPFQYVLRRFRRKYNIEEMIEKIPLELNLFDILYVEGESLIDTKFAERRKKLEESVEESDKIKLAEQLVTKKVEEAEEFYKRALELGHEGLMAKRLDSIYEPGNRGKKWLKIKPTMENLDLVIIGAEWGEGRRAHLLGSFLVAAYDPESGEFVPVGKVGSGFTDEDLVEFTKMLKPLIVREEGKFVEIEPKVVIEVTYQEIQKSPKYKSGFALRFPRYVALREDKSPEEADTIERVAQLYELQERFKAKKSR
Assay: Km for ATP of purified Thermococcus sp. (strain 9° N-7) DNA ligase (ligation of lambda DNA)
Type: biochemical
Settings: typical assay: predigested lambda DNA substrate, 45° C.; recommended 10 mM Tris-HCl pH 7.5, 2.5 mM MgCl2, 2.5 mM DTT
Experimental: The recommended reaction conditions are:
The typical substrate for assaying activity at 45° C. is lambda DNA. Appropriately digested lambda DNA can reveal the state of ligation of the 12-base extension at the termini of lambda DNA. We typically used either a HindIII or BstEII predigested lambda DNA. Analysis of the ligation was performed on agarose gel electrophoresis.

Km: < 100 µM
SMILES: Nc1ncnc2c1ncn2[C@@H]1O[C@H](COP(=O)(O)OP(=O)(O)OP(=O)(O)O)[C@@H](O)[C@H]1O [ATP]
